Laboratory results published in patent US9556145B2, “2-pyridyloxy-4-ester orexin receptor antagonists” (MERCK SHARP & DOHME CORP., priority 2012, dated 2017).

Legend:
human orexin-2 receptor = human orexin-2 receptor (Homo sapiens (Human), UniProt O43614); assay: FLIPR Ca2+ Flux Assay, orexin-2 receptor; format: cell-based; details: CHO cells expressing the receptor; agonist 70 pM Ala-6,12 orexin-A; read-out: hOX2R FLIPR IC50
Protocol: The utility of the compounds in accordance with the present invention as orexin receptor OX1R and/or OX2R antagonists may be readily determined without undue experimentation by methodology well known in the art, including the “FLIPR Ca^2+ Flux Assay” (Okumura et al., Biochem. Biophys. Res. Comm. 280:976-981, 2001). In a typical experiment the OX1 and OX2 receptor antagonistic activity of the compounds of the present invention was determined in accordance with the following experimental method. For intracellular calcium measurements, Chinese hamster ovary (CHO) cells expressing the rat orexin-1 receptor or the human orexin-2 receptor, are grown in Iscove's modified DMEM containing 2 mM L-glutamine, […], 1% hypoxanthine-thymidine supplement, 100 U/ml penicillin, 100 µg/ml streptomycin and 10% heat-inactivated fetal calf serum (FCS). The cells are seeded at 20,000 cells/well into Becton-Dickinson black 384-well clear bottom sterile plates coated with poly-D-lysine. All reagents were from GIBCO-Invitrogen Corp. The seeded plates are incubated overnight at 37° C. and 5% CO2. Ala-6,12 human orexin-A as the agonist is prepared as a 1 mM stock solution in 1% bovine serum albumin (BSA) and diluted in assay buffer (HBSS containing 20 mM HEPES, 0.1% BSA and 2.5 mM probenecid, pH7.4) for use in the assay at a final concentration of 70 pM. Test compounds are prepared as 10 mM stock solution in DMSO, then diluted in 384-well plates, first in DMSO, then assay buffer. On the day of the assay, cells are washed 3 times with 100 μl assay buffer and then incubated for 60 min (37° C., 5% CO2) in 60 μl assay buffer containing 1 μM Fluo-4AM ester, 0.02% pluronic acid, and 1% BSA. The dye loading solution is then aspirated and cells are washed 3 times with 100 μl assay buffer. 30 μl of that same buffer is left in each well. Within the Fluorescent Imaging Plate Reader (FLIPR, Molecular Devices), test compounds are added to the plate in a volume of 25 μl, incubated for 5 min and finally 25 μl of agonist is added. Fluorescence is measured for each well at 1 second intervals for 5 minutes and the height of each fluorescence peak is compared to the height of the fluorescence peak induced by 70 pM Ala-6,12 orexin-A with buffer in place of antagonist. For each antagonist, IC50 value (the concentration of compound needed to inhibit 50% of the agonist response) is determined. Alternatively, compound potency can be assessed by a radioligand binding assay (described in Bergman et. al. Bioorg. Med. Chem. Lett. 2008, 18, 1425-1430) in which the inhibition constant (Ki) is determined in membranes prepared from CHO cells expressing either the OX1 or OX2 receptor. The intrinsic orexin receptor antagonist activity of a compound which may be used in the present invention may be determined by these assays.

hOX1R = hOX1R (Homo sapiens, UniProt O43613); assay: FLIPR Ca2+ Flux Assay, orexin-1 receptor; format: cell-based; details: CHO cells expressing the receptor; agonist 70 pM Ala-6,12 orexin-A

Sequence of human orexin-2 receptor (O43614 whole entry): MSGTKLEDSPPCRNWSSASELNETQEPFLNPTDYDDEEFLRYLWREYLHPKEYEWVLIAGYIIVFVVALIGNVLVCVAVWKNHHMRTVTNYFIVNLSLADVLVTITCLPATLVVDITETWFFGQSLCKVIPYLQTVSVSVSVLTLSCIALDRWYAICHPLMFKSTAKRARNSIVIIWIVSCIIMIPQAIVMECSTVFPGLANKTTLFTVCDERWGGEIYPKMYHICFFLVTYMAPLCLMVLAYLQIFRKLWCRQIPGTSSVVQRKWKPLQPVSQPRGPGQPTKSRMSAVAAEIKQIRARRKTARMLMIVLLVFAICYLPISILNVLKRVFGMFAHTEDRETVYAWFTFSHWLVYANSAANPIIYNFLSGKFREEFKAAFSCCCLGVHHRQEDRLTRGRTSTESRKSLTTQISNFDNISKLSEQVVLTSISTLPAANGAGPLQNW

| SMILES | IC50 (human orexin-2 receptor) [µM] | IC50 (hOX1R) [µM] |
| --- | --- | --- |
| COC(=O)c1ccnc(O[C@@H]2CC[C@@H](C)N(C(=O)c3ccccc3-n3nccn3)C2)c1 [Example 1, Methyl 2-{[(3R,6R)-6-methyl-1-{[2-(2H-1,2,3-triazol-2-yl)phenyl]carbonyl}piperidin-3-yl]oxy}pyridine-4-carboxylate] | 0.026 | 1.4 |
| COC(=O)c1cc(O[C@@H]2CC[C@@H](C)N(C(=O)c3ccccc3-n3nccn3)C2)ncc1C(F)(F)F [Example 3, methyl 2-{[(3R,6R)-6-methyl-1-{[2-(2H-1,2,3-triazol-2-yl)phenyl]-carbonyl}piperidin-3-yl]oxy}-5-(trifluoro-methyl)pyridine-4-carboxylate] | 0.057 | 0.028 |
| COC(=O)c1cc(O[C@@H]2CC[C@@H](C)N(C(=O)c3ccccc3-n3nccn3)C2)ncc1Br [Example 4, methyl 5-bromo-2-{[(3R,6R)-6-methyl-1-{[2-(2H-1,2,3-triazol-2-yl)phenyl]carbon-yl}piperidin-3-yl]oxy}pyridine-4-carboxylate] | 0.06 | 0.0289 |
| COC(=O)c1ccnc(O[C@@H]2CC[C@@H](C)N(C(=O)c3ccccc3-n3nccn3)C2)c1Cl [Example 5, Methyl 3-chloro-2-{[(3R,6R)-6-methyl-1-{[2-(2H-1,2,3-triazol-2-yl)phenyl]carbonyl}piperidin-3-yl]oxy}pyridine-4-carboxylate] | 0.011 | 0.953 |
| COC(=O)c1ccnc(O[C@@H]2CC[C@@H](C)N(C(=O)c3ccccc3-n3nccn3)C2)c1C(=O)OC [Example 6, dimethyl 2-{[(3R,6R)-6-methyl-1-{[2-(2H-1,2,3-triazol-2-yl)phenyl]-carbonyl}-piperidin-3-yl]oxy}pyridine-3,4-dicarboxylate] | 0.0308 | 0.526 |
| COC(=O)c1cc(C)nc(O[C@@H]2CC[C@@H](C)N(C(=O)c3ccccc3-n3nccn3)C2)c1 [Example 7, methyl 2-methyl-6-{[(3R,6R)-6-methyl-1-{[2-(2H-1,2,3-triazol-2-yl)phenyl]carbonyl}piperidin-3-yl]oxy}pyridine-4-carboxylate] | 0.0826 | 1.47 |
| COC(=O)c1ccnc(O[C@@H]2CC[C@@H](C)N(C(=O)c3ccccc3-n3nccn3)C2)c1F [Example 8, methyl 3-fluoro-2-{[(3R,6R)-6-methyl-1-{[2-(2H-1,2,3-triazol-2-yl)phenyl]carbonyl}piperidin-3-yl]oxy}pyridine-4-carboxylate] | 0.0249 | 1.69 |
| COC(=O)c1ccnc(O[C@@H]2CC[C@@H](C)N(C(=O)c3ccc(OC)nc3-n3nccn3)C2)c1 [Example 9, methyl 2-{[(3R,6R)-1-{[6-methoxy-2-(2H-1,2,3-triazol-2-yl)pyridin-3-yl]carbonyl}-6-methylpiperidin-3-yl]oxy}pyridine-4-carboxylate] | 0.406 | 10 |
| COC(=O)c1cc(O[C@@H]2CC[C@@H](C)N(C(=O)c3ccccc3-n3nccn3)C2)ncc1OC [Example 10, Methyl 5-methoxy-2-{[(3R,6R)-6-methyl-1-{[2-(2H-1,2,3-triazol-2-yl)phenyl]carbonyl}piperidin-3-yl]oxy}pyridine-4-carboxylate] | 0.096 | 0.597 |
| COC(=O)c1cc(O[C@@H]2CC[C@@H](C)N(C(=O)c3ccccc3-n3nccn3)C2)ncc1C [Example 11, Methyl 5-methyl-2-{[(3R,6R)-6-methyl-1-{[2-(2H-1,2,3-triazol-2-yl)phenyl]carbonyl}piperidin-3-yl]oxy}pyridine-4-carboxylate] | 0.011 | 0.031 |
| COC(=O)c1ccnc(O[C@@H]2CC[C@@H](C)N(C(=O)c3ccc(OC)nc3-c3ncccn3)C2)c1 [Example 12, Methyl 2-({(3R,6R)-1-[(6-methoxy-2-pyrimidin-2-ylpyridin-3-yl)carbonyl]-6-methylpiperidin-3-yl}oxy)pyridine-4-carboxylate] | 2.11 | 10 |
